Test results as given in patent US11427783B2, “Perfuming compositions” (Firmenich SA, priority 2016, dated 2022).
Counter-ions that a name gives are not always drawn.

Assay: Volatility of perfuming compounds in air
Type: physicochemical
Conditions: for Volatility: Table 5, perfuming compounds having a green note
[1] = Table 6, perfuming compounds having a fruity note
[2] = Table 10, perfuming compounds having a woody note
[3] = Table 9, perfuming compounds having a gourmand note
[4] = Table 8, perfuming compounds having a sweet note

C[C@H]1[C@@H]2C[C@H](C[C@@]13C=CC(=O)CC3)C2(C)C
Volatility (μg/l air) [1]: 4.14 μg/l air
Volatility (μg/l air) [2]: 4.14 μg/l air

CC1=CCC(/C=C/C(C)C(C)O)C1(C)C (stereo not shown)
Volatility (μg/l air) [2]: 20.41 μg/l air

CCCCC1CCC(=O)O1 (racemic) [(+−)-4-OCTANOLIDE]
Volatility (μg/l air) [1]: 108.41 μg/l air
Volatility (μg/l air) [3]: 108.41 μg/l air

Cc1ncsc1CCO [2-(4-METHYL-1,3-THIAZOL-5-YL)-1-ETHANOL]
Volatility (μg/l air) [4]: 2.36 μg/l air

CC1OCCC12NCCS2 (racemic)
Volatility (μg/l air) [4]: 52.47 μg/l air

CCC(O)COC1CCCCC1C(C)(C)C (racemic)
Volatility (μg/l air) [2]: 205.05 μg/l air

N#CC(=C1CCCCC1)c1ccccc1 [CYCLOHEXYLIDENE(PHENYL)ACETONITRILE]
Volatility: 0.96 μg/l air

COC(OC)C(C)(C)CC=C(C)C
Volatility (μg/l air) [2]: 1311.32 μg/l air

CCc1occc(=O)c1O [2-ETHYL-3-HYDROXY-4(4H)-PYRANONE]
Volatility (μg/l air) [1]: 48.86 μg/l air
Volatility (μg/l air) [4]: 48.86 μg/l air

CC(=O)OCCC1=CCC2CC1C2(C)C (stereo not shown)
Volatility (μg/l air) [2]: 60.02 μg/l air

CC(=O)/C(C)=C/C1C(C)=CCCC1(C)C (racemic)
Volatility (μg/l air) [1]: 36.33 μg/l air
Volatility (μg/l air) [2]: 106.28 μg/l air

(−)-(1S)-2,6,6-TRIMETHYL-BICYCLO[3.1.1]HEPT-2-ENE
Volatility: 33722.60 μg/l air

CC(C)(C)C(=O)OCCc1ccccc1 [2-PHENYLETHYL PIVALATE]
Volatility (μg/l air) [1]: 71.44 μg/l air
Volatility (μg/l air) [4]: 71.44 μg/l air
Volatility (μg/l air) [3]: 71.44 μg/l air

CC1(CO)CC1CC1CC2CC2(C)C1(C)C (stereo not shown)
Volatility (μg/l air) [2]: 1.74 μg/l air

Cc1occc(=O)c1O [3-HYDROXY-2-METHYL-4(4H)-PYRANONE]
Volatility (μg/l air) [1]: 92.42 μg/l air
Volatility (μg/l air) [4]: 92.42 μg/l air

CCOC(=O)/C=C/c1ccccc1 [ETHYL (E)-3-PHENYL-2-PROPENOATE]
Volatility (μg/l air) [1]: 20.55 μg/l air

CCCCC[C@@H]1OC(=O)C[C@H]1C (racemic) [(+−)-TRANS-3-METHYL-4-NONANOLIDE]
Volatility (μg/l air) [1]: 21.05 μg/l air
Volatility (μg/l air) [4]: 21.05 μg/l air
Volatility (μg/l air) [3]: 21.05 μg/l air

COc1ccc(C(C)=O)cc1 [1-(4-METHOXYPHENYL)-1-ETHANONE”]
Volatility: 50.21 μg/l air

CC/C=C\CCCCC=O [(Z)-6-NONENAL]
Volatility: 2431.73 μg/l air

O=COCc1ccccc1 [BENZYL FORMATE]
Volatility: 1339.53 μg/l air

C=C(C)[C@@H]1CC=C(CO)CC1
Volatility: 33.78 μg/l air

CC(C)CCOCCc1ccccc1 [3-METHYLBUTYL 2-PHENYLETHYL ETHER]
Volatility (μg/l air) [1]: 110.11 μg/l air
Volatility (μg/l air) [4]: 110.11 μg/l air
Volatility (μg/l air) [3]: 110.11 μg/l air

O=C/C=C/c1ccccc1 [(E)-3-PHENYL-2-PROPENAL]
Volatility (μg/l air) [2]: 70.14 μg/l air

CCCCC1CCCC(=O)O1 (stereo not shown) [5-NONANOLIDE]
Volatility (μg/l air) [1]: 23.87 μg/l air
Volatility (μg/l air) [4]: 23.87 μg/l air
Volatility (μg/l air) [3]: 23.87 μg/l air

CC(=O)OCCc1ccccc1 [2-PHENYLETHYL ACETATE]
Volatility (μg/l air) [4]: 201.26 μg/l air
Volatility (μg/l air) [3]: 201.26 μg/l air

COC(=O)/C=C/c1ccccc1 [METHYL (E)-3-PHENYL-2-PROPENOATE]
Volatility (μg/l air) [1]: 61.65 μg/l air

C/C=C(\C)C(=O)OCc1ccccc1 [BENZYL (E)-2-METHYL-2-BUTENOATE]
Volatility (μg/l air) [1]: 33.88 μg/l air
Volatility (μg/l air) [2]: 33.88 μg/l air

CC(=O)OC/C=C/c1ccccc1 [(E)-3-PHENYL-2-PROPENYL ACETATE]
Volatility (μg/l air) [1]: 20.47 μg/l air

CC1(C)CCC[C@@]2(C)[C@H]1CC[C@@]1(C)OCC[C@@H]21
Volatility (μg/l air) [2]: 9.23 μg/l air

C=C1C2CCC(C)(OCC)C1CCC2(C)C (racemic)
Volatility (μg/l air) [2]: 135.00 μg/l air

C=C/C=C/C=C\CCCCC
Volatility: 1247.28 μg/l air

COC(=O)OC1CC/C=C\CCC1 (racemic)
Volatility: 278.83 μg/l air

Cc1ccc(OCC=O)cc1
Volatility: 89.41 μg/l air

CC(C)Cc1ccc2ccccc2n1 [2-ISOBUTYLQUINOLINE]
Volatility (μg/l air) [4]: 8.73 μg/l air

CCCCCCO [1-hexanol]
Volatility: 2070.00 μg/l air

CCC(=O)OC/C=C/c1ccccc1 [(E)-3-PHENYL-2-PROPENYL PROPANOATE]
Volatility (μg/l air) [1]: 8.14 μg/l air

CCCC(=O)OC(C)(C)Cc1ccccc1 [1,1-DIMETHYL-2-PHENYLETHYL BUTANOATE]
Volatility (μg/l air) [1]: 34.65 μg/l air
Volatility (μg/l air) [4]: 34.65 μg/l air
Volatility (μg/l air) [3]: 34.65 μg/l air

COc1cc(C)ccc1O [2-METHOXY-4-METHYLPHENOL]
Volatility (μg/l air) [4]: 306.61 μg/l air

CCCC1CCC(=O)O1 (racemic) [(+−)-4-HEPTANOLIDE]
Volatility (μg/l air) [4]: 295.34 μg/l air

CC(CC=O)c1ccccc1 (racemic) [(+−)-3-PHENYLBUTANAL]
Volatility: 227.83 μg/l air

COc1ccc(OC)c(C(C)(C)C)c1 [2-TERT-BUTYL-1,4-DIMETHOXYBENZENE]
Volatility (μg/l air) [2]: 82.95 μg/l air

COc1cccc(OC)c1O [2,6-DIMETHOXYPHENOL]
Volatility (μg/l air) [4]: 19.23 μg/l air
Volatility (μg/l air) [3]: 19.23 μg/l air

COCCc1ccccc1 [(2-METHOXYETHYL)BENZENE]
Volatility: 1239.07 μg/l air
